The results in this text go back to patent US20110028509A1, “Sulfonamides” (MERCK SERONO SA, priority 2008, published 2011).

In the test the target is T1, CXCR3 (Homo sapiens, UniProt P49682).
T1 sequence (P49682 1-368): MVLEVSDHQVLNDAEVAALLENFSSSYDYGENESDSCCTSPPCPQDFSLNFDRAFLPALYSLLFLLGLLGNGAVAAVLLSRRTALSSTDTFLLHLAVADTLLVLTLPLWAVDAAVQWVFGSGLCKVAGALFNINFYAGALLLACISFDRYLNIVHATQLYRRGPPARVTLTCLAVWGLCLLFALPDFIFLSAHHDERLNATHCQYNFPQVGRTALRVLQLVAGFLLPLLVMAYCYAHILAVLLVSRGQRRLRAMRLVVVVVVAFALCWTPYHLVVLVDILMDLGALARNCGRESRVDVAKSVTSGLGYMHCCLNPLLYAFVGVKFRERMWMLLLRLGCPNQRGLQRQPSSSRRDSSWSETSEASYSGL
The test is described as follows: CXCR3 Ca2+ mobilization (FLIPR), stable hCXCR3-CHO cell line, I-TAC stimulated. It counts as cell-based. Further details: host or cells: CHO cells stably expressing hCXCR3. The conditions noted are these: hCXCR3-CHO cells, I-TAC 100 nM stimulated Ca2+ response; read-out: Ca-ITAC. On the procedure:
Human chinese hamster ovary (CHO) cell line stably expressing hCXCR3 was purchased from Euroscreen (Belgium) and culture in HAM's F12 (Invitrogen) containing 10% heat inactivated fetal calf serum (Cancerra, Australia), 50 units ml−1 penicillin, 50 μml−1 streptomycin, (Invitrogen, USA) and 400 μg/ml geneticin (G418) (Calbiochem, San Diego), according to the manufacturer.
CXCR3Ca^2+ mobilization was measured using a stable hCXCR3—CHO cell line and a microtiter-plate based assay using FLIPR^TETRA™ (Molecular Devices). In more detail, cells were harvested and plated into black 384-well plates (Becton-Dickinson) at a density of 15 000 cells per well and grown in the incubator for 18 hours. On the next day the media was aspirated and replaced with the cell loading buffer (HBSS—(Invitrogen) based buffer containing calcium indicator and signal enhancer from a commercial Ca2+ assay kit (Becton Dickinson). The plates were incubated for 60 minutes in the incubator, the test compounds were added and the plates equilibrated for 20 minutes at room temperature.
Plates were placed into FLIPR and the CXCR3 agonist (I-TAC, 100 nM) stimulated fluorescence change was quantitated. The activity of CXCR3 antagonists was determined as percent of the CXCR3 ligand I-TAC in the absence of the test compounds (=100% activity).

In the case of `CC(c1ccc(-c2nnn[nH]2)cc1)N(Cc1ccccc1)S(=O)(=O)c1ccc(Cl)cc1` (stereo not drawn) [Example 171], the IC50 amounted to 1.95 µM.
As for `N#Cc1ccc(CN(Cc2ccccn2)S(=O)(=O)c2ccc([N+](=O)[O-])cc2)cc1` [Example 172], the IC50 is 0.7 µM.
The value for `N#Cc1ccc(CN(Cc2ccccn2)S(=O)(=O)c2ccccc2[N+](=O)[O-])cc1` [Example 173] was 0.4 µM.
For the compound `Cc1ccc(S(=O)(=O)N(Cc2ccc(C#N)cc2)Cc2ccccn2)cc1` [Example 174], the IC50 stood at 1.5 µM.
The value for `Cc1cccc(S(=O)(=O)N(Cc2ccc(C#N)cc2)Cc2ccccn2)c1` [Example 175] was 3.5 µM; that for `CC(C)(C)c1ccc(S(=O)(=O)N(Cc2ccc(C#N)cc2)Cc2ccccn2)cc1` [Example 177] was 1.45 µM; that for `COc1cccc(S(=O)(=O)N(Cc2ccc(C#N)cc2)Cc2ccccn2)c1` [Example 178] was 2 µM.
With `CC(C)(C)OC(=O)N[C@@H](C(=O)Nc1ccc(CN(Cc2ccccn2)S(=O)(=O)c2ccc(Cl)cc2)cc1)c1ccccc1` [Example 180], the IC50 amounted to 1 µM.
Consider `COC(C(=O)Nc1ccc(CN(Cc2ccccn2)S(=O)(=O)c2ccc(Cl)cc2)cc1)c1ccccc1` (stereo not drawn) [Example 182], for which the IC50 came to 0.04 µM.
Take `O=C(Nc1ccc(CN(Cc2ccccn2)S(=O)(=O)c2ccc(Cl)cc2)cc1)C(O)c1cccc(Cl)c1` (stereo not drawn) [Example 184]: the IC50 worked out at 1 µM.
In the case of `N#Cc1ccc(CN(Cc2ccccn2)S(=O)(=O)c2ccccc2Cl)cc1` [Example 186] it was 5 µM.
In the case of `O=C(NC1(c2ccccc2)CC1)c1ccc(CN(Cc2cnccn2)S(=O)(=O)c2ccc(Cl)cc2)cc1` [Example 187] it was 4 µM; in that of `CCOC(=O)c1ccc(CN(Cc2ccccn2)S(=O)(=O)c2ccc(OCC)cc2)cc1` [Example 191], 13 µM.
The value for `N#Cc1ccccc1CN(Cc1ccccn1)S(=O)(=O)c1ccc(Cl)cc1` [Example 196] was 13 µM; that for `N#Cc1ccc(CN(CCCc2ccccc2)S(=O)(=O)c2ccc(Cl)cc2)cc1` [Example 198] was 3.1 µM; that for `O=S(=O)(c1ccc(Cl)cc1)N(CCc1ccccc1)Cc1ccc(-c2nnn[nH]2)cc1` [Example 204] was 2.01 µM.
For `CCOc1ccc(S(=O)(=O)N(Cc2ccc(C(=O)NCC(C)c3ccccc3)cc2)Cc2cccnc2)cc1` (stereo not drawn) [Example 206], the IC50 was 4.5 µM.
The value for `O=S(=O)(c1ccc(Cl)cc1)N(CCCc1ccccc1)Cc1ccc(-c2nnn[nH]2)cc1` [Example 221] was 1.7 µM; that for `CC(CCc1ccccc1)N(Cc1ccc(-c2nnn[nH]2)cc1)S(=O)(=O)c1ccc(Cl)cc1` (stereo not drawn) [Example 224] was 1.5 µM; that for `CC(CN(Cc1ccc(-c2nnn[nH]2)cc1)S(=O)(=O)c1ccc(Cl)cc1)c1ccccc1` (stereo not drawn) [Example 227] was 5 µM.
Regarding `O=S(=O)(c1ccc(Cl)cc1)N(Cc1cccc(-c2nnn[nH]2)c1)Cc1ccccn1` [Example 228], the IC50 came out at 2.8 µM.
On to `O=S(=O)(c1ccc(Cl)cc1)N(Cc1ccccc1)Cc1ccccc1-c1nnn[nH]1` [Example 229], for which the IC50 was 1.6 µM.
Consider `N#Cc1cccc(CN(Cc2ccccc2)S(=O)(=O)c2ccc(Cl)cc2)c1` [Example 230], for which the IC50 was determined as 1.2 µM.
In the case of `O=S(=O)(c1ccc(Cl)cc1)N(Cc1ccccc1)Cc1cccc(-c2nnn[nH]2)c1` [Example 234] it was 1.5 µM; in that of `CC(C)(Cc1ccccc1)N(Cc1ccc(-c2nnn[nH]2)cc1)S(=O)(=O)c1ccc(Cl)cc1` [Example 236], 3 µM.
Regarding `O=S(=O)(c1ccccc1Oc1ccccc1)N(Cc1ccc(-c2nnn[nH]2)cc1)Cc1ccccn1` [Example 237], the IC50 is 25 µM.
In the case of `O=S(=O)(c1ccccc1-c1ccccc1)N(Cc1ccc(-c2nnn[nH]2)cc1)Cc1ccccn1` [Example 253] it was 9.5 µM.
Regarding `CCOc1ccc(S(=O)(=O)N(Cc2ccc(N3CCOCC3)cc2)Cc2ccccn2)cc1` [Example 269], the IC50 was found to be 9 µM.
In the case of `CCOc1ccc(S(=O)(=O)N(Cc2ccc(Oc3ccncc3)cc2)Cc2ccccn2)cc1` [Example 270] it was 6 µM; in that of `CC(c1cccc(-c2nnn[nH]2)c1)N(Cc1ccccc1)S(=O)(=O)c1ccc(Cl)cc1` (stereo not drawn) [Example 271], 5 µM; in that of `N#Cc1ccc(CN(C(=O)c2ccccn2)S(=O)(=O)c2ccc(Cl)cc2)cc1` [Example 279, 4-Chloro-N-(4-cyano-benzyl)-N-(pyridine-2-carbonyl)-benzenesulfonamide], 10 µM.
`O=S(=O)(c1ccc(Cl)cc1)N(Cc1ccc(-c2nnn[nH]2)cc1)Cc1ccccc1-n1cccn1` [Example 280]: the IC50 is 20 µM.
In the case of `N#Cc1ccc(C(=O)N(Cc2ccccn2)S(=O)(=O)c2ccc(Cl)cc2)cc1` [Example 281, 4-Chloro-N-(4-cyano-benzoyl)-N-pyridin-2-ylmethyl-benzenesulfonamide] it was 7 µM.
The value for `N#Cc1ccc(S(=O)(=O)N(Cc2ccc(C(=O)NC3(c4ccc(OC(F)(F)F)cc4)CC3)cc2)Cc2ccccn2)cc1` [Example 282] was 5.5 µM; that for `CCOc1ccc(S(=O)(=O)N(Cc2ccc(C(=O)NC3(c4ccc(OC(F)(F)F)cc4)CC3)cc2)Cc2ccccn2)cc1` [Example 283] was 7.5 µM; that for `N#Cc1ccc(CCN(Cc2ccccn2)S(=O)(=O)c2ccc(Cl)cc2)cc1` [Example 286, 4-Chloro-N-[2-(4-cyano-phenyl)-ethyl]-N-pyridin-2-ylmethyl-benzenesulfonamide] was 4 µM.
In the case of `Cc1ccccc1S(=O)(=O)N(Cc1ccc(C#N)cc1)Cc1ccccn1` [Example 287] it was 7 µM; in that of `N#Cc1ccc(CN(C2CCc3cc(Cl)ccc32)S(=O)(=O)c2ccc(Cl)cc2)cc1` (stereo not drawn) [Example 299], 5.5 µM; in that of `N#Cc1ccc(S(=O)(=O)N(Cc2ccc(NC(=O)Cc3nnn[nH]3)cc2)Cc2ccccn2)cc1` [Example 300], 12 µM.
Turning to `Cc1cccc(S(=O)(=O)N(Cc2ccc(-c3nnn[nH]3)cc2)Cc2ccccn2)c1` [Example 311], the IC50 is 10 µM.
In the case of `N#Cc1ccc(CN(Cc2ccccn2)S(=O)(=O)c2cccc(Cl)c2)cc1` [Example 313] it was 15 µM.
In the case of `O=C(O)c1ccc(CN(Cc2cnccn2)S(=O)(=O)c2ccc(Cl)cc2)cc1` [Example 319] it was 20 µM; in that of `COc1cc(OC)nc(CN(Cc2ccc(C(=O)O)cc2)S(=O)(=O)c2ccc(Cl)cc2)n1` [Example 328], 13 µM; in that of `O=C(NC1(c2ccccc2)CC1)c1ccc(CN(Cc2ccc3cccnc3n2)S(=O)(=O)c2ccc(Cl)cc2)cc1` [Example 330], 10 µM.
In the case of `COC(=O)C(Cc1ccc(O)cc1)NC(=O)c1ccc(CN(Cc2ccccn2)S(=O)(=O)c2ccc(Cl)cc2)cc1` (stereo not drawn) [Example 345], the IC50 came out at 18 µM.
Take `CCOc1ccc(S(=O)(=O)N(Cc2ccc(C(=O)O)c(OC)c2)Cc2ccccn2)cc1` [Example 346]: the IC50 came out at 7 µM.
In the case of `CCOc1ccc(S(=O)(=O)N(Cc2ccc(C(=O)OC)c(O)c2)Cc2ccccn2)cc1` [Example 353] it was 6 µM.
As for `O=C(NC(Cc1ccc(O)cc1)C(=O)O)c1ccc(CN(Cc2ccccn2)S(=O)(=O)c2ccc(Cl)cc2)cc1` (stereo not drawn) [Example 354], the IC50 is 6 µM.
